| SMILES | logP |
| --- | --- |
| O=c1nc(N=CN2CCCC2)ccn1C1CC(F)C(CO)O1 (stereo not given) | -0.16 |
| O=c1nc(N=CN2CCOCC2)ccn1C1CC(F)C(CO)O1 (stereo not given) | -0.68 |
| O=c1nc(N=CN2CCOCC2)ccn1C1CCC(CO)O1 (stereo not given) | -0.97 |
| CN(C)C=Nc1ccn(C2CCC(CO)O2)c(=O)n1 (stereo not given) | -0.95 |
| CCCN(/C=N/c1ccn([C@H]2CC[C@@H](CO)O2)c(=O)n1)CCC | 0.95 |
| CCCN(C=Nc1ccn(C2CC(F)C(CO)O2)c(=O)n1)CCC (stereo not given) | 1.35 |
| Nc1ccn([C@H]2C[C@H](F)[C@@H](CO)O2)c(=O)n1 | -0.89 |
| O=c1nc(N=CN2CCCC2)ccn1C1CCC(CO)O1 (stereo not given) | -0.47 |
| O=c1nc(/N=C/N2CCCCC2)ccn1[C@H]1C[C@H](F)[C@@H](CO)O1 | 0.36 |
| O=c1nc(/N=C/N2CCCCC2)ccn1[C@H]1CC[C@@H](CO)O1 | 0.06 |
| CCN(/C=N/c1ccn([C@H]2CC[C@@H](CO)O2)c(=O)n1)CC | -0.06 |
| CC(C)N(C=Nc1ccn(C2CCC(CO)O2)c(=O)n1)C(C)C (stereo not given) | 0.72 |
| CN(C)C=Nc1ccn(C2CC(F)C(CO)O2)c(=O)n1 (stereo not given) | -0.64 |
| CCN(C=Nc1ccn(C2CC(F)C(CO)O2)c(=O)n1)CC (stereo not given) | 0.23 |
| CC(C)N(C=Nc1ccn(C2CC(F)C(CO)O2)c(=O)n1)C(C)C (stereo not given) | 1.14 |
